Measurements published in patent US20050163850A1, “Administration of levodopa and carbidopa” (priority 2003, published 2005).
“And” between values parts separate entries of the source, which are not always exact repeats. Equal values may be shown once. Read-outs that look alike come from different tables or passages of the source.

Legend:
[1] = cited from earlier work
[2] = duodenal, 2 mg levodopa lauryl sulfate/rat (0.85 mg levodopa equivalent/rat), individual rats
[3] = iv, 0.4 mg levodopa/kg, individual rats 1-3 (Table D)
[4] = with carbidopa; cited from earlier work
in vivo = conditions: rat, plasma, iv, 0.4 mg/kg, Plasma level (levodopa), 0.4 mg levodopa/kg, individual rats 1-3 (Table D)
[5] = cited from earlier work; remark: listed apart in the source
[6] = after oral administration; cited from earlier work
[7] = Intravenous levodopa group of Example 10, levodopa plasma level; format: in vivo; conditions: 0.4 mg levodopa/kg, individual rats 1-3 (Table C)
Protocol: Another group of rats were treated with levodopa intravenously, at a dose of 0.4 mg/kg.

C[C@@](Cc1ccc(O)c(O)c1)(NN)C(=O)O [Carbidopa, (−)-L-((alpha)-hydrazino-((alpha)-methyl-(beta)-(3,4-dihydroxybenzene)propanoic acid monohydrate]
solubility in water [1]: slightly soluble in water

CCCCCCCCCCCCOS(=O)(=O)O.N[C@@H](Cc1ccc(O)c(O)c1)C(=O)O [Levodopa lauryl sulfate, Levodopa-Lauryl Sulfate Complex]
Plasma level (levodopa) ([2]; time 0 h): 9.42 ng/mL and 8.7 ng/mL and 8.55 ng/mL | Plasma level (levodopa) ([2]; time 1 h): 57.3 ng/mL and 51.3 ng/mL and 43.7 ng/mL | Plasma level (levodopa) ([2]; time 2 h): 21.3 ng/mL and 22 ng/mL and 9.24 ng/mL | Plasma level (levodopa) ([2]; time 3 h): 12 ng/mL and 11.6 ng/mL and 24 ng/mL | Plasma level (levodopa) ([2]; time 4 h): 8.07 ng/mL and 7.45 ng/mL and 19.6 ng/mL

N[C@@H](Cc1ccc(O)c(O)c1)C(=O)O [Levodopa, (−)-L-(alpha)-amino-(beta)-(3,4-dihydroxybenzene) propanoic acid]
Plasma level (levodopa) ([3]; time 0 h): 0 ng/mL | Plasma level (levodopa) ([3]; time 0.033 h): 336 ng/mL and 247 ng/mL and 690 ng/mL | Plasma level (levodopa) ([3]; time 0.5 h): 16 ng/mL and 11.4 ng/mL and 41.6 ng/mL | Plasma level (levodopa) ([3]; time 1 h): 7.34 ng/mL and 11.5 ng/mL and 18.2 ng/mL | Plasma level (levodopa) ([3]; time 1.5 h): 6.51 ng/mL and 0 ng/mL and 13.8 ng/mL | Plasma level (levodopa) ([3]; time 2 h): 0 ng/mL and 5.82 ng/mL and 8.23 ng/mL | Plasma level (levodopa) ([3]; time 3 h): 0 ng/ml (2×) and 5.53 ng/ml | plasma half-life of levodopa [4]: 1.5 h | solubility in water [1]: slightly soluble in water | concentration at 0 h (in vivo): 0 ng/mL | average intraindividual coefficient of variation for the plasma levodopa concentrations ([5]; after oral therapy (sustained-release tablets)): 34% | average intraindividual coefficient of variation for the plasma levodopa concentrations ([5]; during continuous intestinal infusion, p<0.01): 14% | time within which practically all absorption of levodopa occurs [6]: ≤ 4 h | Plasma level (levodopa) ([7]; time 0 h): 0 ng/mL | Plasma level (levodopa) ([7]; time 0.033 h): 336 ng/mL and 247 ng/mL and 690 ng/mL | Plasma level (levodopa) ([7]; time 0.5 h): 16 ng/mL and 11.4 ng/mL and 41.6 ng/mL | Plasma level (levodopa) ([7]; time 1 h): 7.34 ng/mL and 11.5 ng/mL and 18.2 ng/mL | Plasma level (levodopa) ([7]; time 1.5 h): 6.51 ng/mL and 0 ng/mL and 13.8 ng/mL | Plasma level (levodopa) ([7]; time 2 h): 0 ng/mL and 5.82 ng/mL and 8.23 ng/mL | Plasma level (levodopa) ([7]; time 3 h): 0 ng/ml (2×) and 5.53 ng/ml | concentration at 0 h ([7]; Sprague-Dawley, rat, plasma, 0.4 mg/kg, time 0 h): 0 ng/mL
